Test: Aggregation in aqueous solution by particle-size analyzer (light scattering)
Format: physicochemical
Conditions: aqueous solution (10% DMSO), 4 and 0.04 μg/mL solutions
Source text: Thus, the aggregation properties of 6 and paclitaxel were studied as a function of concentration in aqueous solution (10% DMSO) using a Brookhaven 90Plus submicrometer particle-size analyzer.

light scattering (aggregation): did not show any scattering
Compound: CC(=O)O[C@H]1C(=O)[C@@]2(C)[C@H]([C@H](OC(=O)c3ccccc3)[C@]3(O)C[C@H](OC(=O)[C@H](O)[C@@H](NC(=O)c4ccccc4)c4ccccc4)C(C)=C1C3(C)C)[C@]1(OC(C)=O)CO[C@@H]1C[C@@H]2O [paclitaxel, Paclitaxel]

Source: patent US20080175892A1, “Nanostructure-Drug Conjugates” (priority 2006, published 2008)
